We go through 1 molecule from patent publication US20260139241A1, “METHOD FOR CONSTRUCTING SENESCENT CELLSAND METHOD FOR EVALUATING ANTI-SENESCENCE EFFICACY” (JAKA BIOTECH Co,.Ltd., priority 2022, published 2026).

Test [1] has as its system exogenously senescent human primary fibroblasts (UVA-P4, UVA-P7, UVA-P9 passage cells). Kind of test: Anti-aging efficacy evaluation of VC on exogenously senescent (light aging) cells, proliferation-promoting effect (ATP detection). As to conditions: exogenous senescence (light aging), 10 ug/mL VC, 48 h. Type of test: cell-based.
Excerpt: […]

For test [2], the system named is endogenously senescent human primary fibroblasts (P4, P7, P9, P12 passage cells). Kind of test: Anti-aging efficacy evaluation of VC on endogenously senescent (naturally senescent) cells, proliferation-promoting effect (ATP detection). Type of test: cell-based. As to conditions: endogenous senescence, 10 ug/mL VC, 48 h.
Excerpt: […]

Structures are written as SMILES.

Turning to `O=C1O[C@H]([C@@H](O)CO)C(O)=C1O` [VC], the proliferation-promoting effect entry is given as “relatively significant proliferation-promoting effect” in test [1] (early-stage senescent cells (UVA-P4)); “no proliferation-promoting effect” in test [1] (late-stage senescent cells (UVA-P9)); “relatively poor proliferation-promoting effect” in test [1] (middle-stage senescent cells (UVA-P7)); “relatively poor proliferation-promoting effect” in test [2] (early-stage senescent cells (P7)); “relatively significant proliferation-promoting effect” in test [2] (growth-stage cells (P4)); “basically no proliferation-promoting effect” in test [2] (late-stage senescent cells (P12)). Moreover, the proliferation-promoting effect result in test [2] (middle-stage senescent cells (P9)) is “basically no proliferation-promoting effect”.
